According to US20240294551A1 (AMGEN INC., priority 2022, published 2024):
Where a name gives a salt, the structure may show the parent alone. Read-outs that look alike come from different tables or passages of the source.

Tests used:
[1] = 16-membered ring
[2] = target: His-tagged KRAS G12D protein (Homo sapiens (Human), UniProt P01116, G12D); test: KRAS G12D TR-FRET Assay; type: binding; conditions: read-out: KRAS G12D Binding IC50
In short: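 His-tagged KRAS G12D (diluted to 20 nM in pH 7.4 HEPES buffer with 10 mM MgCl2 and 10 μM GDP) was preincubated with titrated compound for 30 min at room temperature. Biotinylated KRPep-2d peptide (diluted to 20 nM) was then added for 1 h, and displacement was monitored by TR-FRET.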

[3] = system: Phosphorylation of ERK1/2 in AsPC-1 cells; test: Phospho-ERK1/2 MSD Assay; type: cell-based, human; conditions: 2 h, read-out: 2 h p-ERK (AsPC-1 cells), IC50
In short: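 Read-out: MSD electrochemiluminescent detection of phosphorylated ERK1/2 in whole-cell lysates, fitted to a 4-parameter logistic curve for IC50. Prior to lysis, AsPC-1 cells (25,000 per well) received a 2 h compound dose-response at 37 °C.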

[4] = from Oc1nc(OC[C@@]23CCCN2C[C@H](F)C3)nc2c(F)c(-c3c(CCCCOC[C@H]4CNCCO4)c(Cl)cc4[nH]ncc34)ncc12; snar bond; 16-membered ring; BroP/DIEA; MeCN/DMSO; 4.7 mM; 25.0 °C
SW620 cells = test: SW620 CTG Assay (CellTiter-Glo cell viability); type: cell-based, human; conditions: SW620, 72 h; third value of the cell; read-out: G12D/C/V Cell Proliferation CTG (72 h) SW620
In short: (§1)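 Human pancreatic AsPC-1 or colon SW620 cells in RPMI 1640 with 10% FBS, seeded overnight, then exposed to serially diluted compound for 72 h at 37 °C. CellTiter-Glo luminescence normalized to DMSO control; IC50 from a 4-parameter logistic model.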

AsPC-1 cells = test: AsPC-1 CTG Assay (CellTiter-Glo cell viability); type: cell-based, human; conditions: AsPC-1, 72 h; first value of the cell; read-out: G12D/C/V Cell Proliferation CTG (72 h) AsPC-1
In short: as §1

[5] = target: GDP-bound KRAS protein (aa 1-169), containing both G12D and C118A amino acid substitutions (Homo sapiens (Human), UniProt P01116, C118A/G12D); test: KRAS G12D Coupled Nucleotide Exchange Assay; type: biochemical; conditions: read-out: KRAS G12D Coupled Exchange IC50
GDP-bound KRAS protein (aa 1-169), containing both G12D and C118A amino acid substitutions, sequence (P01116 other isoform, or with tags, fused parts or gaps G12D/C118A): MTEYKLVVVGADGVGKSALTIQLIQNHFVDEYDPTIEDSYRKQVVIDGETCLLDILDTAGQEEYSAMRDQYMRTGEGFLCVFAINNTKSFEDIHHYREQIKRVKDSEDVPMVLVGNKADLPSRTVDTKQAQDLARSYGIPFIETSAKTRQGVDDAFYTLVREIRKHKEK

His-tagged KRAS G12D protein, sequence (P01116 other isoform, or with tags, fused parts or gaps G12D): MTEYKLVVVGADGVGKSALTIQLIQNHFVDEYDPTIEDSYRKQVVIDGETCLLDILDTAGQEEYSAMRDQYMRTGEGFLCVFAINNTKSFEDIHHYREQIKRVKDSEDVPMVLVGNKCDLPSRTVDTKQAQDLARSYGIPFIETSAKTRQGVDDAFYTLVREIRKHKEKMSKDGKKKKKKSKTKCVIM

Question: Which ring closure, isolated yield ([1]; from CC(C)(C)OC(=O)n1ncc2c(-c3ncc4c(N5CCC[C@@H](OC(=O)CCCBr)C5)nc(OC[C@@]56CCCN5C[C@H](F)C6)nc4c3F)c(O)ccc21, ether bond, K2CO3, DMF, 17.5 mM) does the source give for CC(C)(C)OC(=O)n1ncc2c3c(ccc21)OCCCC(=O)O[C@@H]1CCCN(C1)c1nc(OC[C@@]24CCCN2C[C@H](F)C4)nc2c(F)c-3ncc12 here?
Answer: 24%

Question: Which ring closure, isolated yield ([1]; from C=CCCc1c(C)cc2c(cnn2C2CCCCO2)c1-c1ncc2c(N3CCCC(O)(CCC=C)C3)nc(OC[C@@]34CCCN3C[C@H](F)C4)nc2c1F, rcm bond, Hoveyda-Grubbs II (20 mol%)/TsOH, DCE, 1.6 mM, 80.0 °C) does the source give for Cc1cc2c(cnn2C2CCCCO2)c2c1CCC=CCCC1(O)CCCN(C1)c1nc(OC[C@@]34CCCN3C[C@H](F)C4)nc3c(F)c-2ncc13 (some centres unmarked) here?
Answer: 71%

Question: Which ring closure, isolated yield ([1]; from Cc1cc2c(cnn2C2CCCCO2)c(-c2ncc3c(N4CCCC(c5cn[nH]n5)C4)nc(OC[C@@]45CCCN4C[C@H](F)C5)nc3c2F)c1CCCCl, other bond, K2CO3/TBAI, MeCN, 6.9 mM, 85.0 °C) does the source give for Cc1cc2c(cnn2C2CCCCO2)c2c1CCCn1ncc(n1)C1CCCN(C1)c1nc(OC[C@@]34CCCN3C[C@H](F)C4)nc3c(F)c-2ncc13 (some centres unmarked) here?
Answer: 31%

Question: Which ring closure, isolated yield ([1]; from C=CCOC[C@@H]1CCCN(c2nc(OC[C@@]34CCCN3C[C@H](F)C4)nc3c(F)c(-c4c(CC=C)c(C)cc5c4cnn5C4CCCCO4)ncc23)C1, rcm bond, Hoveyda-Grubbs II/TsOH, 1,2-dichloroethane, 2.1 mM, 80.0 °C) does the source give for Cc1cc2c(cnn2C2CCCCO2)c2c1CC=CCOC[C@@H]1CCCN(C1)c1nc(OC[C@@]34CCCN3C[C@H](F)C4)nc3c(F)c-2ncc13 (mixture of isomers) here?
Answer: 21%

Question: With O[C@@H]1C[C@@H]2COCCCCc3c(Cl)cc4[nH]ncc4c3-c3ncc4c(nc(OC[C@@]56CCCN5C[C@H](F)C6)nc4c3F)N(C1)C2 (mixture of isomers) as the molecule, how does the ring closure, isolated yield ([1]; from Oc1nc(OC[C@@]23CCCN2C[C@H](F)C3)nc2c(F)c(-c3c(CCCCOC[C@@H]4CNC[C@H](O)C4)c(Cl)cc4[nH]ncc34)ncc12, snar bond, BroP/DIEA, MeCN/DMSO, 4.7 mM, 25.0 °C) read?
Answer: 25%

Question: For Fc1c2ncc3c(nc(OC[C@@]45CCCN4C[C@H](F)C5)nc13)N1CCO[C@@H](COCCCCc3c(Cl)cc4[nH]ncc4c3-2)C1 [Example 135, (17R)-9-Chloro-30-fluoro-24-(((2R,7aS)-2-fluorotetrahydro-1H-pyrrolo[1,2-a]pyrrol-7a(5H)-yl)methoxy)-15,18-dioxa-5,6,21,23,25,29-hexaazahexacyclo[24.3.1.1˜17,21.0˜2,10˜.0˜3,7˜.0˜22,27˜]hentriaconta-1(30),2,4,7,9,22,24,26,28-nonaene trifluoroacetate], which IC50 [2] is on record?
Answer: 0.003 µM

Question: What about the IC50 [3] of the same molecule?
Answer: 0.017 µM

Question: And the ring closure, yield after HPLC [4]?
Answer: 39%

Question: And the IC50 (SW620 cells)?
Answer: 0.0551 µM

Question: What about the IC50 (AsPC-1 cells) of the same molecule?
Answer: 0.25 µM

Question: And the IC50 [5]?
Answer: 0.002 µM
